How the values were obtained:
[1] = system: 4T1 cells; assay: Survival assay (methylene blue) of irradiated 4T1 cells; assay type: cell-based, mouse; details: drugs with RT, beginning 2 days prior to RT until 6 days post-RT
Description: Survival Analysis: Cells were seeded at 70% confluency and treated as needed for different timepoints. Cells were washed with PBS and fixed with 4% PFA for 10 min. at R.T. The fixed cells were stained with Methylene Blue (MB) for 1 hour at R.T., washed and air dried overnight. The color was extracted with 0.1M HCl for 1 hour at R.T. Absorbance was read at 630 nm.

[2] = system: BR45 PDX; assay: BR45 PDX in NSG mice treated by brachytherapy, tumor growth; assay type: in vivo, mouse; details: pretreatment prior to brachytherapy RT (12 Gy and 10 Gy)
Description: Mouse models: Syngeneic mouse model: 2.0×10^5 4T1 cells were inoculated subcutaneously on 6-7 weeks old female Balb/c mice. Allogeneic model: BR45 tumors were induced on NSG mice either by injecting 4.0×10^6 cells […] or subcutaneously transplanting xenografts. After reached the desired tumor volume (80-100 mm3), mice were randomly grouped to around 8-10 per cage and treatment were initialized. Tumor sizes were regularly measured with an electronic calliper every two days and their volumes were obtained using the formula V=(W (2)×L)/2. Mice were kept under conventional pathogen-free conditions. All in-vivo experiments were performed with approval of the Hebrew University of Jerusalem IACUC.
Tumor inoculation: 4T1 mouse breast carcinoma mimics stage IV triple negative breast cancer in human. It is highly metastatic to lungs, lymph nodes, liver and bones after implantation in the mammary fat pad of immune-competent Balb/c mice. Primary tumors were harvested after euthanizing female mice using carbon dioxide (CO2) inhalation. Time elapsed from tumor inoculation varied from 2 weeks to 1 month. […]
Drugs were given usually by IP or gavage depending on the drug. […] During this period the tumor volumes were measured regularly to observe the action of the drug. […]

SMILES | cell survival / sensitization of 4T1 cells to RT [1] | tumor growth, response to RT [2]
C[C@@H](Oc1cc(-c2cnn(C3CCNCC3)c2)cnc1N)c1c(Cl)ccc(F)c1Cl [Crizotinib] | significantly less effective in sensitizing the cells to RT | –
C#Cc1cccc(Nc2ncnc3cc(OCCOC)c(OCCOC)cc23)c1 [erlotinib, Erlotinib] | – | did not improve the results of the treatment
